Test results from publication PMC12055641, “The Study of Antistaphylococcal Potential of Omiganan and Retro-Omiganan Under Flow Conditions” (Probiotics and Antimicrobial Proteins, 2024).

How the values were obtained:
S. aureus ATCC 25923 = experiment: microbe, parasite or virus in culture
Description: (§1) Clinical S. aureus strains were collected from patients with atopic dermatitis during their visits to the Outpatient Clinic and hospitalization in the Department of Dermatology, Venereology and Allergology at Medical University of Gdańsk (following the approval from the ethics committee, Approval Number NKBBN/242–477/2014). Reference strains of S. aureus ATCC 25923, S. aureus ATCC 33591, S. aureus ATCC 9144, and S. aureus ATCC 12598 were obtained from the American Type Culture Collection. All the strains were stored at − 80 °C in Roti®-Store cryo vials (Carl Roth GmbH, Karlsruhe, Germany) and before the tests were transferred into fresh Mueller–Hinton Medium (BioMaxima, Lublin, Poland) and incubated for 24 h at 37 °C. Subsequently, each bacterial inoculum was seeded on Mueller–Hinton agar plates (BioMaxima) and incubated again for 24 h. The cultures prepared in this way were used in further antimicrobial assays. Minimum inhibitory concentrations (MICs) were determined according to the Clinical and Laboratory Standards Institute recommendations. […] The experiments were conducted on 96-well microtiter plates, with a final volume of 100 μL. Additionally, in the case of daptomycin, the medium was supplemented with Ca^2+ (50 mg/L). Cell densities were adjusted spectrophotometrically (Multiskan™ GO Microplate Spectrophotometer, Thermo Scientific) at 600 nm. The MICs were taken as the lowest drug concentration at which a visible growth of the microorganisms was inhibited. Minimum biofilm eliminating concentrations (MBECs) were determined on 96-well flat-bottomed microtiter polystyrene plates with resazurin (7-hydroxy-3H-phenoxazin-3-one 10-oxide sodium salt) as a cell viability reagent. To do this, the plates were filled with 100 μL of the initial inoculums of bacteria (0.5 × 10^7 CFU/mL) in the Mueller–Hinton broth and incubated for 24 h at 37 °C. […] After 24 h of incubation, 20 μL of resazurin (4 mg/mL) was added to each well and the MBEC values were read. Minimum biofilm inhibitory concentrations (MBICs) were also determined on 96-well flat-bottomed microtiter polystyrene plates as described previously. To do this, 50 μL of the compounds in the concentration range, diluted MHB, were prepared. Subsequently, the 50 μL of the staphylococcal inoculums were added to reach the same density of bacteria as that in the MBEC assay. After 24 h of incubation at 37 °C, the wells were rinsed three times with PBS and the fresh medium (100 μL) with resazurin (0.6 mg/mL) was added. Then, after 1 h of incubation, MBICs were read. […] All experiments were conducted in triplicate.
(§2) Formation of the biofilm inside the PDMS flow chambers was performed using three peristaltic pumps working simultaneously (LP-pump, Kamush, Lipopharm, Poland) and sterile Tygon® 3350 silicone hoses (2.4 × 0.8 × 0.8 mm) with a length of 30 and 50 cm for inlet and outlet, respectively. Bacterial suspensions were prepared (0.5 × 10^7 CFU/mL) in sterile 50-mL test tubes, which were placed in a heating block at 37 °C. Before experiments, all channels were assessed for tightness and sterilized using a 70% 2-propanol solution (10 min, flow rate 1 mL/min) and rinsed with sterile PBS solution (10 min, flow 0.1 mL/min). The formation of biofilm inside the channels was divided into three stages: (1) adhesion—at this stage S. aureus suspensions were passed through the channels for 4 h at a flow rate of 0.1 mL/min; (2) rinsing—the previously used hoses were replaced with new sterile ones, and the channels were rinsed with sterile PBS solution for 10 min at a flow rate of 0.1 mL/min; (3) biofilm growth—after flushing the channels, the silicone hoses were placed in tubes with MHB medium, which was passed through the channels for 24 h at a flow rate of 0.1 mL/min. All experiments included growth and sterility controls.
(§3) This assay was conducted also on the S. aureus ATCC 25923 and S. aureus 33,591 (MRSA) strains.

[1] = system: S. aureus ATCC 33591 (MRSA); experiment: microbe, parasite or virus in culture
Description: as §1, §2, §3

[2] = system: S. aureus clinical strain 004N (MRSA); set-up: method as in earlier work; conditions: clinical isolate 004N (MRSA), nasal swab; cited from earlier work
[3] = system: S. aureus clinical strain 005S; set-up: method as in earlier work; conditions: clinical isolate 005S, skin; cited from earlier work
[4] = system: S. aureus clinical strain 015N (MRSA); set-up: method as in earlier work; conditions: clinical isolate 015N (MRSA), nasal swab; cited from earlier work
[5] = system: S. aureus clinical strain 030N; set-up: method as in earlier work; conditions: clinical isolate 030N, nasal swab; cited from earlier work
[6] = system: S. aureus clinical strain 031S; set-up: method as in earlier work; conditions: clinical isolate 031S, skin; cited from earlier work
[7] = system: S. aureus clinical strain 043SC (MRSA); set-up: method as in earlier work; conditions: clinical isolate 043SC (MRSA), skin of patient with furuncle folliculitis; cited from earlier work
[8] = system: S. aureus clinical strain 051N (MRSA); set-up: method as in earlier work; conditions: clinical isolate 051N (MRSA), nasal swab; cited from earlier work
[9] = system: S. aureus clinical strain 060S; set-up: method as in earlier work; conditions: clinical isolate 060S, skin; cited from earlier work
[10] = system: S. aureus clinical strain 009S; set-up: method as in earlier work; conditions: clinical isolate 009S, skin; cited from earlier work
[11] = S. aureus 25923 biofilm treated under flow with Retro-Omiganan (half MBEC) for 24 h
[12] = S. aureus 25923 biofilm treated under flow with Retro-Omiganan (half MBEC) for 48 h
[13] = S. aureus 25923 biofilm treated under flow with Retro-Omiganan (half MBEC) for 72 h
[14] = Staphylococcus aureus, ATCC25923, 0 h
[15] = Staphylococcus aureus, ATCC25923, 24 h
[16] = Staphylococcus aureus, ATCC25923, 48 h
[17] = Staphylococcus aureus, ATCC25923, 72 h
[18] = S. aureus ATCC 33591 (MRSA) biofilm treated under flow with Retro-Omiganan (half MBEC) for 24 h
[19] = S. aureus ATCC 33591 (MRSA) biofilm treated under flow with Retro-Omiganan (half MBEC) for 48 h
[20] = S. aureus ATCC 33591 (MRSA) biofilm treated under flow with Retro-Omiganan (half MBEC) for 72 h

CC1(C)S[C@@H]2[C@H](NC(=O)[C@H](N)c3ccccc3)C(=O)N2[C@H]1C(=O)O [Ampicillin]
8 µg/mL: Antimicrobial susceptibility (MIC) [3]
0.25 µg/mL: Antimicrobial susceptibility (MIC) [8] | Antimicrobial susceptibility (MIC) [9]
32 µg/mL: Antimicrobial susceptibility (MIC) [7]
> 128 µg/mL: MIC [1, 18] | MIC [1, 19] | MIC [1, 20] | MIC ([1]; Staphylococcus aureus, 0 h) | MIC ([1]; Staphylococcus aureus, 24 h) | MIC ([1]; Staphylococcus aureus, 48 h) | MIC ([1]; Staphylococcus aureus, 72 h)
16 µg/mL: Antimicrobial susceptibility (MIC) [4]
0.5 µg/mL: MIC (S. aureus ATCC 25923; [11]) | MIC (S. aureus ATCC 25923; [12]) | MIC (S. aureus ATCC 25923; [13]) | MIC (S. aureus ATCC 25923; [14]) | MIC (S. aureus ATCC 25923; [15]) | MIC (S. aureus ATCC 25923; [16]) | MIC (S. aureus ATCC 25923; [17]) | Antimicrobial susceptibility (MIC) [2] | Antimicrobial susceptibility (MIC) [5] | Antimicrobial susceptibility (MIC) [6]

CCCCCCCCCC(=O)N[C@@H](Cc1c[nH]c2ccccc12)C(=O)N[C@H](CC(N)=O)C(=O)N[C@@H](CC(=O)O)C(=O)N[C@@H]1C(=O)NCC(=O)N[C@@H](CCCN)C(=O)N[C@@H](CC(=O)O)C(=O)N[C@H](C)C(=O)N[C@@H](CC(=O)O)C(=O)NCC(=O)N[C@H](CO)C(=O)N[C@@H]([C@H](C)CC(=O)O)C(=O)N[C@@H](CC(=O)c2ccccc2N)C(=O)O[C@@H]1C [Daptomycin]
0.125 µg/mL: Antimicrobial susceptibility (MIC) [5] | Antimicrobial susceptibility (MIC) [6] | Antimicrobial susceptibility (MIC) [9]
0.5 µg/mL: Antimicrobial susceptibility (MIC) [10]
2 µg/mL: MIC (S. aureus ATCC 25923; Staphylococcus aureus, ATCC25923, 0 h, S. aureus 25923, time 0 h (baseline, before peptide exposure)) | MIC (S. aureus ATCC 25923; Staphylococcus aureus, ATCC25923, 24 h, S. aureus 25923 biofilm treated under flow with Omiganan (half MBEC) for 24 h) | MIC (S. aureus ATCC 25923; Staphylococcus aureus, ATCC25923, 48 h, S. aureus 25923 biofilm treated under flow with Omiganan (half MBEC) for 48 h) | MIC (S. aureus ATCC 25923; Staphylococcus aureus, ATCC25923, 72 h, S. aureus 25923 biofilm treated under flow with Omiganan (half MBEC) for 72 h) | MIC ([1]; S. aureus ATCC 33591 (MRSA), time 0 h (baseline, before peptide exposure)) | MIC ([1]; Staphylococcus aureus, ATCC33591|MRSA, 0 h, S. aureus ATCC 33591 (MRSA), time 0 h (baseline, before peptide exposure)) | MIC ([1]; Staphylococcus aureus, ATCC33591|MRSA, 24 h, S. aureus ATCC 33591 (MRSA) biofilm treated under flow with Omiganan (half MBEC) for 24 h) | MIC ([1]; Staphylococcus aureus, ATCC33591|MRSA, 24 h, S. aureus ATCC 33591 (MRSA) biofilm treated under flow with Retro-Omiganan (half MBEC) for 24 h) | MIC ([1]; Staphylococcus aureus, ATCC33591|MRSA, 48 h, S. aureus ATCC 33591 (MRSA) biofilm treated under flow with Omiganan (half MBEC) for 48 h) | MIC ([1]; Staphylococcus aureus, ATCC33591|MRSA, 72 h, S. aureus ATCC 33591 (MRSA) biofilm treated under flow with Omiganan (half MBEC) for 72 h) | Antimicrobial susceptibility (MIC) [2] | Antimicrobial susceptibility (MIC) [4] | Antimicrobial susceptibility (MIC) [8]
1 µg/mL: MIC (S. aureus ATCC 25923; Staphylococcus aureus, ATCC25923, 24 h, S. aureus 25923 biofilm treated under flow with Retro-Omiganan (half MBEC) for 24 h) | MIC (S. aureus ATCC 25923; Staphylococcus aureus, ATCC25923, 48 h, S. aureus 25923 biofilm treated under flow with Retro-Omiganan (half MBEC) for 48 h) | MIC (S. aureus ATCC 25923; Staphylococcus aureus, ATCC25923, 72 h, S. aureus 25923 biofilm treated under flow with Retro-Omiganan (half MBEC) for 72 h) | MIC [1, 19] | MIC ([1]; Staphylococcus aureus, ATCC33591|MRSA, 48 h, S. aureus ATCC 33591 (MRSA) biofilm treated under flow with Retro-Omiganan (half MBEC) for 48 h) | MIC ([1]; Staphylococcus aureus, ATCC33591|MRSA, 72 h, S. aureus ATCC 33591 (MRSA) biofilm treated under flow with Retro-Omiganan (half MBEC) for 72 h) | Antimicrobial susceptibility (MIC) [7]
4 µg/mL: Antimicrobial susceptibility (MIC) [3]

CC[C@H]1OC(=O)[C@H](C)[C@@H](O[C@H]2C[C@@](C)(OC)[C@@H](O)[C@H](C)O2)[C@H](C)[C@@H](O[C@@H]2O[C@H](C)C[C@H](N(C)C)[C@H]2O)[C@](C)(O)C[C@@H](C)C(=O)[C@H](C)[C@@H](O)[C@]1(C)O [Erythromycin]
> 512 µg/mL: Antimicrobial susceptibility (MIC) [7]
32 µg/mL: Antimicrobial susceptibility (MIC) [4]
0.25 µg/mL: Antimicrobial susceptibility (MIC) [5]
≤ 0.25 µg/mL: MIC (S. aureus ATCC 25923; [11]) | MIC (S. aureus ATCC 25923; [12]) | MIC (S. aureus ATCC 25923; [13]) | MIC (S. aureus ATCC 25923; [14]) | MIC (S. aureus ATCC 25923; [15]) | MIC (S. aureus ATCC 25923; [16]) | MIC (S. aureus ATCC 25923; [17])

CC(=O)O[C@H]1C[C@@]2(C)[C@@H](C[C@@H](O)[C@H]3[C@@]4(C)CC[C@@H](O)[C@@H](C)[C@@H]4CC[C@@]32C)/C1=C(\CCC=C(C)C)C(=O)O [Fusidic Acid]
0.125 µg/mL: Antimicrobial susceptibility (MIC) [4] | Antimicrobial susceptibility (MIC) [7] | Antimicrobial susceptibility (MIC) [8] | Antimicrobial susceptibility (MIC) [9]
0.0625 µg/mL: Antimicrobial susceptibility (MIC) [2] | Antimicrobial susceptibility (MIC) [3]
0.25 µg/mL: Antimicrobial susceptibility (MIC) [5] | Antimicrobial susceptibility (MIC) [6]
2 µg/mL: Antimicrobial susceptibility (MIC) [10]
≤ 0.25 µg/mL: MIC (S. aureus ATCC 25923; [11]) | MIC (S. aureus ATCC 25923; [12]) | MIC (S. aureus ATCC 25923; [13]) | MIC (S. aureus ATCC 25923; [14]) | MIC (S. aureus ATCC 25923; [15]) | MIC (S. aureus ATCC 25923; [16]) | MIC (S. aureus ATCC 25923; [17]) | MIC [1, 18] | MIC [1, 19] | MIC [1, 20] | MIC ([1]; Staphylococcus aureus, 0 h) | MIC ([1]; Staphylococcus aureus, 24 h) | MIC ([1]; Staphylococcus aureus, 48 h) | MIC ([1]; Staphylococcus aureus, 72 h)
